Measured values from PubChem BioAssay AID1845197 (Molecular Pharmacology Branch, DTP, NCI, 2023).
Several values for one entry are separate records, joined by “and”; a condition that tells them apart may be missing. Equal values may be shown once.

Tested on: 349418-098-R tumor spheroid viability
Assay: Anticancer human tumor 349418-098-R patient-derived lung adenocarcinoma cell line growth inhibition
Settings: spheroids with HUVEC and MSC; for viability, T/C: stronger effect = lower value
Text: Multicellular complex tumor spheroid response to DNA repair inhibitors in combination with DNA-damaging drugs
This study explores the anticancer activities of DNA-damaging drugs and inhibitors of DNA damage repair, both as single agents and in combinations. Complex tumor spheroids comprised of malignant cells, endothelial cells and mesenchymal stem cells served as an in vitro model for human solid tumors. This model system incorporates physiologically relevant features and patient-derived or established malignant cell lines with clinically relevant genetic alterations from many tumor types. Twenty-six patient-derived or established malignant cell lines were evaluated representing sarcoma, melanoma, small cell lung cancer (SCLC), non-small cell lung cancer (NSCLC), as well as bladder, ovarian and pancreatic cancers. The concentration ranges selected for each drug and investigational agent were based upon clinically achievable concentrations if the clinical Cmax of the agent was known.
Compounds. The drugs and compounds olaparib (NSC753686), talazoparib (NSC767125), berzosertib (NSC777718), elimusertib (NSC800525), nedisertib (NSC802822), VX-984 (NSC792969), AZD-1390 (NSC803789), temozolomide (NSC362856), topotecan (NSC609699), trabectedin (NSC813783), staurosporine (NSC755774), and gemcitabine (NSC613327) were obtained from the National Cancer Institute (NCI) Developmental Therapeutics Program Chemical Repository. The FDA-approved anticancer drug set is available from the Developmental Therapeutics Program at https://dtp.cancer.gov/organization/dscb/obtaining/available_plates.htm. […] The stock solutions were prepared in dimethyl sulfoxide (DMSO, Sigma-Aldrich, St. Louis, MO, cat. D2650) at 400-fold the tested concentration and stored at -70 degrees C. Prior to their use, the stock solutions were diluted in fresh medium and the final DMSO concentration in the assay was 0.25% (v/v). All drugs and investigational agents were tested over a range starting from a high concentration at or near the clinical Cmax and decreasing in half-log increments. If the clinical Cmax for an agent had not been determined, the highest concentration tested was 10 microM.
Cell Lines. The patient-derived cancer cell (PDC) lines: 156681-154-R-J1-PDC, 283228-195-R-J1-PDC, 287954-098-R-J1-PDC, 292921-168-R-J2-PDC, 349418-098-R-PDC, 425362-245-T-J1-PDC, 556581-035-R-J1-PDC, and BL0293-F563-PDC were received from the NCI Patient-Derived Models Repository (PDMR, https://pdmr.cancer.gov). The established cell lines HS-SY-2 (RRID:CVCL_8719), MPNST, and SYO-1 (RRID:CVCL_7146) were obtained from the Sloan Kettering Institute. The alveolar soft parts sarcoma cell line ASPS-1 (RRID:CVCL_S738) was established at the NCI and grown from internal seed stocks. The following established cell lines were purchased from the American Type Culture Collection (ATCC, Manassas, VA): G-401 (ATCC, cat. CRL-1441, RRID:CVCL_0270), SW982 (ATCC, cat. HTB-93, RRID:CVCL_1734), VA-ES-BJ (ATCC, cat. CRL-2138, RRID:CVCL_1785), NCI-H719 (ATCC, cat. CRL-5837, RRID:CVCL_1582), NCI-H196 (ATCC, cat. CRL-5823, RRID:CVCL_1509), NCI-H841 (ATCC, cat. CRL-5845, RRID:CVCL_1595), NCI-H1618 (ATCC, cat. CRL-5879, RRID:CVCL_1480), NCI-H1876 (ATCC, cat. CRL-5902, RRID:CVCL_1503), DMS 114 (ATCC, cat. CRL-2066; RRID:CVCL_1174), NCI-H211 (ATCC, cat. CRL-5824; RRID:CVCL_1529), and SW 1271 (ATCC, cat. CRL-2177, RRID:CVCL_1716). The small cell lung cancer cell line COR-L88 was purchased from Sigma-Aldrich (cat. 92031917-1VL, RRID:CVCL_1141). The non-small cell lung cancer cell lines NCI-H226 (RRID:CVCL_1544) and NCI-H322M (RRID:CVCL_1557) were established at the NCI and grown from internal seed stocks. Pooled donor human umbilical vein endothelial cells (HUVEC, Lonza, cat. CC-2519) and human mesenchymal stem cells (hMSC, Lonza, cat. PT-2501) were purchased from Lonza (Walkersville, MD).
Cell Culture. All cells were maintained in an incubator at 37 degrees C and 5% CO2 with 95% humidity. […]

[1] = compound alone, run of 10/17/2019
[2] = compound alone, run of 10/25/2019
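Further: spheroids exposed to compound for 7 days before measurement.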
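Wherever viability, T/C is given: percent of vehicle control viability with 100% = DMSO-treated spheroids.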

Compound | viability, T/C (compound 0.0316 µM) | viability, T/C (compound 0.1 µM) | viability, T/C (compound 0.316 µM) | viability, T/C (compound 1 µM) | viability, T/C (compound 3.16 µM) | viability, T/C (compound 10 µM) | IC50 (curve of compound) | viability, T/C (compound 0.00949 µM) | viability, T/C (compound 0.03 µM) | viability, T/C (compound 0.0949 µM) | viability, T/C (compound 0.3 µM) | viability, T/C (compound 0.949 µM) | viability, T/C (compound 3 µM) | other results
CC(C)n1c(=O)n(C)c2cnc3cc(F)c(-c4ccc(OCCCN5CCCCC5)nc4)cc3c21 | 89% and 110% (2×) | 97.8% and 97.9% and 106% | 94.4% and 93.9% and 108% | 105% and 97.3% and 108% | 109% and 102% and 105% | 56.8% and 48.3% and 85.3% | > 10000 nM and 9630 nM | – | – | – | – | – | – | –
CC1COCCN1c1cc(-c2ccnn2C)c2ccnc(-c3ccn[nH]3)c2n1 (stereo not drawn) | 90.1% and 88.7% and 108% | 48.2% and 41.8% and 114% | 14.5% and 13% and 23.9% | 11.7% and 10.5% and 18.3% | 12.6% and 11.9% and 16.4% | 11.6% (2×) and 11.7% | 95.2 nM and 81.8 nM and 224 nM | – | – | – | – | – | – | –
CC[C@@]1(O)C(=O)OCc2c1cc1n(c2=O)Cc2cc3c(CN(C)C)c(O)ccc3nc2-1 | – | – | – | – | – | – | – | 97.5% [middle of 10 runs] | 77.6% [middle of 10 runs] | 19.6% [middle of 10 runs] | 4.75% [middle of 10 runs] | – | – | viability, T/C (compound 0.003 µM): 99.8% [middle of 10 runs]; IC50 [1]: 58.3 nM [middle of 5 runs]; IC50 [2]: 43.3 nM [middle of 5 runs]
CNCc1ccc(-c2cc(-c3nc(-c4ccc(S(=O)(=O)C(C)C)cc4)cnc3N)on2)cc1 | – | – | – | – | – | – | 442 nM and 228 nM and 544 nM | 99.8% and 99.6% and 96.2% | 104% and 99.5% and 92.1% | 94.8% and 98.9% and 94.1% | 71.1% and 34.7% and 85.6% | 8.67% and 9.93% and 16.6% | 2.53% and 1.43% and 6.14% | –
COc1cc(C)[nH]c(=O)c1CN1CCc2c(Cl)cc(C(OC)C3COC3)c(Cl)c2C1=O (stereo not drawn) | 113% and 98.1% and 118% | 115% and 96.7% and 122% | 108% and 91.9% and 112% | 104% and 92% and 112% | 101% and 79.7% and 118% | 96.4% and 83.6% and 103% | > 10000 nM | – | – | – | – | – | – | –
COc1cc2c(cc1O)CCNC21CSC2c3c(OC(C)=O)c(C)c4c(c3C(COC1=O)N1C(O)C3Cc5cc(C)c(OC)c(O)c5C(C21)N3C)OCO4 (stereo not drawn) | – | – | – | – | – | – | – | – | – | – | – | – | – | viability, T/C (compound 94.9 pM): 90.5% [middle of 10 runs]; viability, T/C (compound 0.0003 µM): 88.1% [middle of 10 runs]; viability, T/C (compound 0.000949 µM): 0.55% [middle of 10 runs]; viability, T/C (compound 0.003 µM): 1.4% [middle of 9 runs]; IC50 [2]: 0.496 nM [middle of 9 runs]
COc1ccc([C@@H](O)c2cc(-c3ncnc4cc(N5CCOCC5)ccc34)c(F)cc2Cl)nn1 | 106% and 101% and 93.8% | 97.6% and 102% and 111% | 105% and 103% and 114% | 112% and 102% and 111% | 88% and 62.7% and 101% | 30.2% and 29% and 33.6% | 6740 nM and 4890 nM and 7570 nM | – | – | – | – | – | – | –
Cc1cc(C)c(CNC(=O)c2cc(-c3ccc(CN4CCOCC4)cc3)cc3c2cnn3C2CCCC2)c(=O)[nH]1 | 99.9% and 101% and 92.4% | 118% and 95.5% and 100% | 111% and 98.5% and 101% | 109% and 97% and 96.8% | 126% and 87.5% and 87.7% | 75.6% and 33.3% and 40.8% | > 10000 nM and 7020 nM and 7990 nM | – | – | – | – | – | – | –
Cc1sc2c(c1C)C(c1ccc(Cl)cc1)=NC(CC(=O)Nc1ccc(O)cc1)c1nnc(C)n1-2 (stereo not drawn) | – | – | – | – | – | – | 148 nM and 96.5 nM and 134 nM | 99.1% and 96.4% and 100% | 101% and 90.4% and 111% | 73% and 49% and 66.3% | 13.4% and 14.2% and 11.2% | 1.66% and 1.1% and 1.46% | 0.54% and 0.67% and 1% | –
Cn1ncnc1[C@H]1c2n[nH]c(=O)c3cc(F)cc(c23)N[C@@H]1c1ccc(F)cc1 | – | – | – | – | – | – | 1720 nM and 1640 nM and 1700 nM | 98.5% and 97% and 84.1% | 96.8% and 96.3% and 103% | 95.9% and 95.6% and 97.9% | 92.7% and 92.3% and 93.1% | 93.1% and 85% and 89.9% | 9.44% and 11.2% and 10.9% | –
Cn1nnc2c(C(N)=O)ncn2c1=O | – | – | – | 101% [middle of 10 runs] | 101% [middle of 10 runs] | 100% [middle of 10 runs] | – | – | – | – | – | – | – | viability, T/C (compound 31.6 µM): 102% [middle of 10 runs]; viability, T/C (compound 100 µM): 103% [middle of 10 runs]; IC50 [1]: > 100000 nM
O=C(c1cc(Cc2n[nH]c(=O)c3ccccc23)ccc1F)N1CCN(C(=O)C2CC2)CC1 | – | – | – | – | – | – | > 30000 nM | – | – | 103% and 97.1% and 105% | 104% and 106% and 113% | 101% and 97.6% and 107% | 94.8% and 97.7% and 110% | viability, T/C (compound 9.49 µM): 84.8% and 83.9% and 106%; viability, T/C (compound 30 µM): 56.2% and 53.6% and 74.1%
[2H]c1nc(C)nc([2H])c1-c1cc(NC[C@@H](C)c2cccc3c(C(=O)NC)ccnc23)ncn1 | 109% and 102% and 93.6% | 109% and 103% and 105% | 106% and 101% and 113% | 105% (2×) and 107% | 114% and 103% (2×) | 112% and 102% and 105% | > 10000 nM | – | – | – | – | – | – | –
